# Source: PMC6214108, “Synthesis and In Vitro Antitumor Activity of Novel Bivalent β-Carboline-3-carboxylic Acid Derivatives with DNA as a Potential Target” (International Journal of Molecular Sciences, 2018)
# Key:
# [1] = test system: calf thymus DNA (CT DNA); experiment: UV-visible spectral study with CT DNA; format: binding; conditions: 10 μM compound, 200 nM CT DNA additions
# Experimental: UV-visible spectroscopy was carried out to determine the binding mode of β-carboline derivatives to DNA (CT DNA) using UV-2500 spectrophotometer (Shimadzu, Kyoto, Japan) at 25 °C. Stock solutions of 10 mM β-carboline derivatives were dissolved in DMSO, and 10 μM CT DNA was prepared in 100 mM KBPES buffer (30 mM Potassium Phosphate with 100 mM KCl, pH 7.0). UV-visible absorption titrations were performed by adding 200 nM CT DNA solution to the quartz cuvette containing approximately 10 μM derivative solutions. UV-Visible absorption spectra were recorded from 200 nm to 350 nm.
# Figure 5 UV-visible spectroscopy study of β-carbolines with calf thymus (CT) DNA. UV-visible absorption titrations were done by adding 200 nM CT DNA solution each time to the quartz cuvette containing 10 μM 4B, 6i, 4D, and 6u. The absorption spectra were recorded from 200 nm to 350 nm.
# [2] = test system: bcl-2 protein; experiment: Western blot of bcl-2 protein; format: cell-based; conditions: A549, 2, 4, and 8 μM, 48 h
# Experimental: (§1) The level of cytochrome C (Cyt C) in mitochondria, and the expression of bcl-2 protein, were evaluated by western blot. A549 cells (1 × 10^6 cells per well) seeded into 6-well plates (JET, Guangzhou, China) were incubated with DMEM containing various concentrations (2, 4, and 8 μM) of β-carbolines (6i and 6u) for 48 h at 37 °C and 5% CO2. Then, the cells were lysed with RIPA lysis buffer for 30 min on ice (containing 1% PMSF), centrifuged at 12,000× g for 5 min at 4 °C, and then the supernatants were transferred to 1.5 mL EP tubes. Proteins were separated by sodium dodecyl sulfate-polyacrylamide gel electrophoresis (SDS-PAGE) and blotted on polyvinylidene difluoride (PVDF) membranes (Millipore, Burlington, MA, USA), as previously described. The membranes were blocked for 2 h at r.t. with 5% non-fat milk in TBST buffer (20 mM Tris-HCl,150 mM NaCl and 0.05% Tween-20, pH7.4), and then incubated with the mouse anti-bcl-2 monoclonal antibody (Sigma, Saint Louis, MO, USA), anti-cytochrome C monoclonal antibody (Beyotime, Haimen, China), and anti-β-actin antibody (1:4000 dilution; Abcam, Cambridge, MA, USA) overnight at 4 °C, and finally incubated with the peroxidase conjugated goat anti-mouse IgG (Jackson ImmunoResearch Laboratories, West Grove, PA, USA) at 37 °C for 1 h. […]
# [3] = test system: cytochrome C (Cyt C) in mitochondria; experiment: Western blot of cytochrome C in mitochondria; format: cell-based; conditions: A549, 2, 4, and 8 μM, 48 h
# Experimental: as §1
Structure (SMILES),Intercalation ability (UV-visible spectra with CT DNA) [1],"Expression of bcl-2 protein, western blot [2]","Level of Cyt C (in mitochondria), western blot [3]"
COC(=O)c1cc2c3ccccc3n(Cc3ccccc3F)c2cn1 [Compound 4D],very weak,,
Cc1ccccc1Cn1c2ccccc2c2cc(C(=O)OCCCCCOC(=O)c3cc4c5ccccc5n(Cc5ccccc5C)c4cn3)ncc21 [Compound 6i],,decreased in a dose-dependent manner,decreased in a dose-dependent manner
O=C(OCCCCCOC(=O)c1cc2c3ccccc3n(Cc3ccccc3F)c2cn1)c1cc2c3ccccc3n(Cc3ccccc3F)c2cn1 [Compound 6u],,decreased in a dose-dependent manner,decreased in a dose-dependent manner
